Assay results from patent US6333340A, “Small molecule sulfonamides for vision and memory disorders” (Gpi Nil Holdings, Inc., priority 1998, dated 2001).
Read-outs that look alike come from different tables or passages of the source.

How the values were obtained:
[1] = test system: retinal ganglion cell axons; experiment: Protection of retinal ganglion cell axons from degeneration following optic nerve transection, RT 97 axon density (Table V); type: in vivo
Description: Efficacy of representative compounds from different immunophilin ligand series in protecting retinal ganglion cell axons from degeneration following optic nerve transection is set forth in Table V.

[2] = Clearance (comments of Table V); type: in vitro ADME
FKBP12 = FKBP12 (Homo sapiens, UniProt P62942); experiment: Inhibition of peptidyl-prolyl isomerase (rotamase) activity of FKBP, chymotrypsin-coupled assay; type: biochemical
Chain of FKBP12 (P62942 whole entry): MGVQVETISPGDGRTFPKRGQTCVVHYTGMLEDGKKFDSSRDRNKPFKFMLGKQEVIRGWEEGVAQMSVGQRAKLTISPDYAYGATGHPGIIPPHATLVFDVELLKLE
Description: The inhibition of the prolyl peptidyl cis-trans isomerase activity of FKBP may be measured as an indicator of this affinity.
Inhibition of the peptidyl-prolyl isomerase (rotamase) activity of the compounds used in the inventive methods and pharmaceutical compositions can be evaluated by known methods described in the literature (Harding et al., Nature, 1989, 341:758-760; Holt et al. J. Am. Chem. Soc., 115:9923-9938). These values are obtained as apparent Ki 's and are presented for representative compounds in TABLE B.
The cis-trans isomerization of an alanine-proline bond in a model substrate, N-succinyl-Ala-Ala-Pro-Phe-p-nitroanilide, is monitored spectrophotometrically in a chymotrypsin-coupled assay, which releases para-nitroanilide from the trans form of the substrate. The inhibition of this reaction caused by the addition of different concentrations of inhibitor is determined, and the data is analyzed as a change in first-order rate constant as a function of inhibitor concentration to yield the apparent Ki values.
In a plastic cuvette are added […] of ice cold assay buffer (25 mM HEPES, pH 7.8, 100 mM NaCl), 10 mL of FKBP (2.5 mM in 10 mM Tris-Cl pH 7.5, 100 mM NaCl, 1 mM dithiothreitol), 25 mL of chymotrypsin (50 mg/ml in 1 mM HCl) and […] of test compound at various concentrations in dimethyl sulfoxide. The reaction is initiated by the addition of 5 mL of substrate (succinyl-Ala-Phe-Pro-Phe-para-nitroanilide, 5 mg/mL in 2.35 mM LiCl in trifluoroethanol).
The absorbance at 390 nm versus time is monitored for 90 seconds using a spectrophotometer and the rate constants are determined from the absorbance versus time data files.

[3] = apparent Ki, Table B, read-out: Ki

Ki (FKBP12; [3]) | SMILES | RT 97 RCC axon density 11 days after ON transection (36 ON axon rescued) [1] | Clearance [2] | Ki (FKBP12; Table V, read-out: Ki rotomase)
 | CCC(C)(C)C(=O)C(=O)N1CCCC[C@H]1C(=O)O [H] | 30.3% |  | 
 | O=C(SCCCc1ccccc1)[C@@H]1CCCN1S(=O)(=O)Cc1ccccc1 [C] | 60.4% | 31.1 µL/min | 
 | CCC(C)(C)C(=O)C(=O)N1CCC[C@H]1C(=O)O [L] | 7.8% | 5.2 µL/min | 
107 nM | Cc1ccc(S(=O)(=O)N2CCCCC2C(=O)OC(CCCc2ccccc2)CCCc2ccccc2)cc1 (stereo not shown) [Compound 3, 1,7-diphenyl-4-heptyl-N-(para-toluene-sulfonyl)pipecolate] |  |  | 
 | O=C(SCCCc1ccccc1)[C@@H]1CCCN1C(=O)NC12CC3CC(CC(C3)C1)C2 [B] | 100% |  | 
 | O=C(OCCCc1cccnc1)[C@@H]1CCCN1C(=S)NC1CCCCC1 [I] | 23.8% | 8.0 µL/min | 
 | CCC(C)(C)C(=O)C(=O)N1CCC[C@H]1C(=O)SCCC(c1ccccc1)c1ccccc1 [M] | -6.3% | 12.5 µL/min | 
 | CCC(C)(C)C(=O)C(=O)N1CCCC[C@H]1C(=O)O [G] | 34.0% |  | 
470 nM | O=C(OCCCCc1ccccc1)C1CCCCN1S(=O)(=O)c1ccccc1 (stereo not shown) [Compound 6, 4-phenyl-1-butyl-N-(benzene-sulfonyl)pipecolate] |  |  | 
 | CCC(C)(C)C(=O)C(=O)N1CCCC[C@H]1C(=O)SCCC(c1ccccc1)c1ccccc1 [K] | 13.0% | 4.5 µL/min | 
 | CN(C)C(=O)N1CCC[C@H]1C(=O)SCCCc1ccccc1 [N] |  | 21.9 µL/min | 
 | CCC(C)(C)C(=O)C(=O)N1CCS[C@H]1C(=O)OCCCc1cccnc1 [F] | 55.1% |  | 272 nM
 | CCC(C)(C)C(=O)CN1CCCCC1C(=O)OC(CCc1ccccc1)CCc1ccccc1 (stereo not shown) [E] | 56.6% | 42.8 µL/min | 
 | O=C(OCCCCc1ccccc1)[C@@H]1CCCCN1S(=O)(=O)Cc1ccccc1 [D] | 58.4% |  | 
 | CCC(C)(C)C(=O)C(=O)N1CCCC[C@H]1C(=O)CCCCc1cccnc1 [J] | 15.8% | 1.5 µL/min | 210 nM
504 nM | Cc1ccc(S(=O)(=O)N2CCCCC2C(=O)OCCCCc2ccccc2)cc1 (stereo not shown) [Compound 5, 4-phenyl-1-butyl-N-(para-toluene-sulfonyl)pipecolate] |  |  | 
